{
  "source": "patent US4559362A",
  "about": "“Immunopotentiator” (Zaidan Hojin Biseibutsu Kagaku Kenkyu Kai, priority 1982, dated 1985)",
  "key": {"L-1210 cells": {"test_system": "L-1210 cells", "test": "Growth inhibitory effect on cultured L-1210 cells", "format": "cell-based", "conditions": "Mus musculus, L1210, 48 hours, 37° C., read-out: concentration at which 50% of the original cells were inhibited from growth", "procedure": "(§1) A study was conducted on the growth inhibitory effect of spermidine on cultures of IMC cancer cells and L-1210 cells. IMC cancer cells were cultured in an RPMI 1640 medium containing 10% bovine fetus serum and 2-mercaptoethanol, and L-1210 cells in an MEM medium containing 10% calf serum, for 48 hours at 37° C. in 5% carbon dioxide. The number of cultured cells was counted with a Coulter counter to evaluate the degree of cell proliferation. Spermidine was added at the start of incubation."}, "[1]": {"test_system": "suppressor cells against DTH", "test": "Inhibition of the elevation of suppressor cells against DTH (spleen cell transfer), sole swelling", "format": "in vivo, CDF1 mice", "conditions": "transferred suppressor cells; for % suppression: untreated suppressor cells 53", "procedure": "The pharmacological effects of spermidine will be illustrated by reference to the following experimental examples, in which spermidine was administered as its phosphate dissolved in physiological saline.\nExperiments were conducted to transfer suppressor cells, in accordance with the method of Yamaguchi et al. (Yamaguchi, K. and Kishimoto, S.: Distinction between suppressors of the delayed-type hypersensitivity and the humoral response to sheep erythrocytes. Immunology. 35, 721-731, 1978). CDF1 mice (8 weeks old, female) were intravenously administered with 10^8 sheep erythrocytes, the amount enough to induce the elevation of suppressor cells against DTH. The objective was to promote the production of suppressor cells. Two days later, supermidine was intraperitoneally injected once daily, and this treatment was continued for 3 days. Five days later, spleen cells were collected from the mice, and 4.5×10^7 cells of them were transferred to normal syngenic mice by i.v. injection. Simultaneously, 10^5 sheep erythrocytes, the amount enough to obtain the optimal reaction, was i.v. injected for immunization.\nFour days later, 10^8 sheep erythrocytes were subcutaneously injected to the soles of the mice to induce the reaction. Twenty-four hours later, swellings on the soles were measured to evaluate the efficacy of spermidine."}, "IMC cancer cells": {"test_system": "IMC cancer cells", "test": "Growth inhibitory effect on cultured IMC cancer cells", "format": "cell-based", "conditions": "48 hours, 37° C., read-out: concentration at which 50% of the original cells were inhibited from growth", "procedure": "as §1"}, "[2]": {"test_system": "interleukine-2 production (Thymocytes)", "test": "Interleukine-2 production by spleen cells, activity of promoting the division of thymocytes", "format": "cell-based, CDF1 mice", "conditions": "for activity at 0.001 µg/mL / activity at 0.01 µg/mL / activity at 0.1 µg/mL / activity at 1 µg/mL: Mus musculus, Thymocyte, 24 h, control = 100, read-out: ^3 H-thymidine incorporation, Thymocytes; for activity at 0.001 µg/mL: 0.001 μg/ml; for activity at 0.01 µg/mL: 0.01 μg/ml; for activity at 0.1 µg/mL: 0.1 μg/ml; for activity at 1 µg/mL: 1 μg/ml", "procedure": "The effect of spermidine on the production of interleukine was investigated in accordance with the method of Larsson et al. (Larsson, E-L: Mechanism of T cell activation II. Antigen- and lectin-dependent acquisition of responsiveness to TCGF is a nonmitogenic, active response of resting T cells. J. Immunol. 126, 1323-1326, 1981).\nSpermidine in a varying concentration was added to 1×10^7 spleen cells/ml of CDF1 mice. In the presence or absence of added concanavalin A (2 μg/ml), the stimulant of interleukine-2 production, the cells were then cultured in a cell incubator kept at 37° C. and at a carbon dioxide concentration of 5% for 24 hours. After completion of the incubation, α-methylmannoside was added to the supernatant to inactivate concanavalin A. The supernatant was collected to examine its interleukine-2 activity. The interleukine-2 activity was determined by the activity of promoting the proliferation of T blast cells and the activity of promoting the division of thymocytes. The latter two activities were determined by measuring ^3 H-thymidine incorporations to both types of cells."}, "[3]": {"test": "Toxicity given intravenously to mice", "format": "in vivo", "conditions": "250 mg/kg intravenously", "procedure": "Spermidine used in this invention has a very low toxicity. It is not toxic at a dose of 250 mg/kg when given intravenously to mice."}},
  "note": "Where two headings read alike, the source gives them in different places.",
  "data": [
    {"molecule": "NCCCCNCCCN", "note": "[Spermidine, spermidine]", "values": [
      {"measurement": "IC50", "setting": "L-1210 cells", "value": 2.8, "unit": "µg/mL"},
      {"measurement": "Swelling on the sole", "setting": "[1]; 10 μg/mouse i.p. once daily for 3 days", "value": "8.0 ± 0.3", "unit": "× 0.1 mm"},
      {"measurement": "% suppression", "setting": "[1]; 10 μg/mouse", "value": 42, "unit": "%"},
      {"measurement": "Swelling on the sole", "setting": "[1]; 100 μg/mouse i.p. once daily for 3 days", "value": "10.2 ± 0.4", "unit": "× 0.1 mm"},
      {"measurement": "% suppression", "setting": "[1]; 100 μg/mouse", "value": 26, "unit": "%"},
      {"measurement": "Swelling on the sole", "setting": "[1]; 1000 μg/mouse i.p. once daily for 3 days", "value": "10.9 ± 0.8", "unit": "× 0.1 mm"},
      {"measurement": "% suppression", "setting": "[1]; 1000 μg/mouse", "value": 21, "unit": "%"},
      {"measurement": "IC50", "setting": "IMC cancer cells", "value": 2.4, "unit": "µg/mL"},
      {"measurement": "optimal concentration (interleukin-2 production)", "setting": "[2]", "value": 0.1, "unit": "µg/mL"},
      {"measurement": "activity at 0.001 µg/mL", "setting": "[2]; with Con A (2 μg/ml)", "value": 126, "unit": "%"},
      {"measurement": "activity at 0.001 µg/mL", "setting": "[2]; without Con A", "value": 171, "unit": "%"},
      {"measurement": "activity at 0.01 µg/mL", "setting": "[2]; with Con A (2 μg/ml)", "value": 130, "unit": "%"},
      {"measurement": "activity at 0.01 µg/mL", "setting": "[2]; without Con A", "value": 255, "unit": "%"},
      {"measurement": "activity at 0.1 µg/mL", "setting": "[2]; with Con A (2 μg/ml)", "value": 149, "unit": "%"},
      {"measurement": "activity at 0.1 µg/mL", "setting": "[2]; without Con A", "value": 281, "unit": "%"},
      {"measurement": "activity at 1 µg/mL", "setting": "[2]; with Con A (2 μg/ml)", "value": 135, "unit": "%"},
      {"measurement": "activity at 1 µg/mL", "setting": "[2]; without Con A", "value": 90, "unit": "%"},
      {"measurement": "toxicity", "setting": "[3]", "value": "not toxic"}
    ]}
  ]
}
